A word on the Cmax: it is the highest concentration seen after dosing. One may read the AUC(0-inf) as total exposure, with the tail of the curve extrapolated. As usually defined, the AUC(0-t) is exposure summed from dosing to a finite time, without extrapolation to infinity. Usually Tmax stands for the time from dosing to the highest level. What is called half-life is the time needed for the level to fall by half in the phase considered. A low value points to rapid decline. A word on the IC50: it is the midpoint of a concentration-inhibition curve.

This note sets out measurements from patent publication US12686666B2, “Triazine compound salt, crystal form thereof, and production method therefor” (TANABE PHARMA CORPORATION, priority 2020, dated 2026).

Data set [1] can be described thus: Thermal stability evaluation (TG/DTA weight change). Type of data set: physicochemical. The note with it: for Thermal stability TG: weight change: 25-274° C. The procedure: Thermal stability was measured and evaluated by using a thermogravimetry/differential thermal analyzer TG/DTA7200 (SII NanoTechnology Inc.) under the following conditions. • Rate of temperature increase: 10° C./min • Range of temperature increase: 25 to 300° C. • Atmosphere: nitrogen 200 mL/min <Hygroscopicity or Deliquescency Evaluation>
Thermal stability was measured and evaluated by using a thermogravimetry/differential thermal analyzer TG/DTA7200 (SII NanoTechnology Inc.) under the following conditions • Rate of temperature increase: 10° C./min • Range of temperature increase: 30 to 300° C. • Atmosphere: nitrogen 200 mL/min • or • using a TGA/DSC1 thermogravimetric analyzer (manufactured by Mettler Toledo, STARe system) under the following conditions. • Rate of temperature increase: 10° C./min • Range of temperature increase: 25 to 300° C. • Atmosphere: nitrogen 50 mL/min <Hygroscopicity or Deliquescency Evaluation>

The nature of data set [2]: Hygroscopicity or deliquescency evaluation (moisture adsorption, DVS). Type of data set: physicochemical. The procedure:
Hygroscopicity or deliquescency was evaluated as follows by using a moisture adsorption measurement device DVS-1 or DVS-intrinsic (Surface Measurement Systems Limited). Each sample (about 5 mg) was placed into an aluminum plate of which the tare weight had been corrected in advance, and the plate was hung on the precision balance of said device to precisely measure the weight at the start of measurement. The humidity was changed in a stepwise manner in a chamber at 25° C., the weight change was recorded with time, and the equilibrium weight was calculated at each humidity. On the basis of the weight at a dried condition (0% RH), the weight change rate and hydration number at each humidity were calculated.
Hygroscopicity or deliquescency was evaluated as follows by using a moisture adsorption measurement device DVS-1 or DVS-intrinsic (Surface Measurement Systems Limited). Each sample was placed into a cell of which the tare weight had been corrected in advance, and the cell was hung on the precision balance of said device to precisely measure the weight at the start of measurement. The humidity was changed in a stepwise manner, the weight change was recorded with time, and the equilibrium weight was calculated at each humidity. On the basis of the weight of anhydride converted from the amount of water at a dried condition (0% RH) or at the start of measurement observed by an alternative method, the weight change rate at each humidity was calculated.

The nature of data set [3]: Chemical stability evaluation (storage 1 week, liquid chromatography peak area %). Type of data set: physicochemical. The note with it: did not show a significant increase of related substances. Here is the method: Each about 1 mg of a sample stored at 60° C. (sealed) or 60° C./75% RH (open) for 1 week and an unstored sample (at the start of test) was dissolved into a mixed solution of acetonitrile/water (1:1) (5 mL) to obtain each sample solution. A test was carried out by liquid chromatographic method under the following conditions to measure each peak area (%).
Each peak area (%) was measured by using Waters ACQUITY UPLC under the following conditions. • Detector: Photodiode array (measurement wavelength: 239 nm) • Column: Waters ACQUITY BEH C18 (2.1 mm×100 mm, 1.7 μm) • Column temperature: constant temperature about 40° C. • Mobile phase: Solution A; water/TFA (2000:1), Solution B; Acetonitrile/TFA (2000:1) • Concentration gradient control: B % 2→100% (15 minutes) • Flow rate: 0.5 mL/min • Injection volume: 2 μL
Each sample was stored at 60° C. under a sealed condition and at 60° C. under 75% RH for 1 week, and an increase or decrease of related substance(s) after the storage was calculated by high-performance liquid chromatographic method on the basis of the area percentage of each peak. Also, the condition of each sample after the storage was observed.

Data set [4] in a line: Pharmacokinetics in dogs treated with a promotor (pentagastrin) or an inhibitor (omeprazole) of gastric acid secretion. Type of data set: in vivo, dogs (male beagle). The note with it: dog; for Cmax / AUC(0-inf) / AUC(0-t) / Tmax / half-life: male, beagle, plasma, po, 10 mg, fasted, mean; for Cmax: oral 10 mg/capsule (free form equivalent); for AUC(0-inf) / AUC(0-t) / Tmax / half-life: oral 10 mg/capsule. The procedure: The pharmacokinetics of hydrobromide of the Triazine compound A and the Triazine compound A under gastric acid secretion and gastric pH adjustment was evaluated by using dogs treated with a promotor of gastric acid secretion or an inhibitor of gastric acid secretion according to a crossover method of 2 groups with 4 phases.
Pentagastrin was used in the treatment of a promotor of gastric acid secretion. Pentagastrin (2.8 mg) was dissolved into dimethylsulfoxide (7.0 mL) and water for injection (7.0 mL) to prepare an administration solution, and administered into a muscle in the thigh at a dose of […]. Pentagastrin was administered 0.5 hour before and 0.5 hour after the administration of each test material (hydrobromide of the Triazine compound A (Compound 1 prepared in Example 1) or the Triazine compound A (Compound 10 prepared in Example 1)). Omeprazole was used in the treatment of an inhibitor of gastric acid secretion. Omeprazole (90 mg) was dissolved into a 1:1 mixed solution (22.5 mL) of a 0.1% aqueous solution of sodium hydrogen carbonate (w/v) and polyethyleneglycol 400 to prepare an administration solution, and administered into a saphenous vein of the hind limb at a dose of 1 mg/0.25 mL/kg. Omeprazole was administered 1 hour before the administration of each test material.
After 25 mL of water for injection was administered to each dog by using a syringe having an oral catheter, the hydrobromide of the Triazine compound A or the Triazine compound A was forcedly orally administered to each dog at a dose of 10 mg/capsule (in case of hydrobromide of the Triazine compound A, free form equivalent (i.e., 10 mg in terms of the Triazine compound A)), and additional 25 mL of water for injection was administered to each dog through the syringe having an oral catheter. Each test material was administered under fasting state, and each dog was fed 6 hours after the administration. Each dog was deprived of water from 1 hour before the administration of each test material to 2 hours after the administration.
Tests were carried out by using 6 heads of 4 year-old male beagle and dividing them into two groups, each of which comprises 3 heads. The dogs in Group 1 were subjected to the administration in the order of (Phase 1) omeprazole administration, then the Triazine compound A administration, (Phase 2) omeprazole administration, then the hydrobromide of the Triazine compound A administration, (Phase 3) pentagastrin administration, then the Triazine compound A administration, and (Phase 4) pentagastrin administration, then the hydrobromide of the Triazine compound A administration, and the dogs in Group 2 were subjected to the administration in the order of (Phase 1) omeprazole administration, then the hydrobromide of the Triazine compound A administration, (Phase 2) omeprazole administration, then the Triazine compound A administration, (Phase 3) pentagastrin administration, then the hydrobromide of the Triazine compound A administration, and (Phase 4) pentagastrin administration, then the Triazine compound A administration, and washout period between each phase was 6 or 7 days. After 15 minutes, 30 minutes, 1, 2, 4, 6, 8, and 24 hour(s) from the administration of the hydrobromide of the Triazine compound A or the Triazine compound A, 0.6 mL of whole blood sample was collected under awakening of each dog from a cephalic vein by using a heparin sodium injection. The whole blood sample was processed into a plasma, and the drug concentration of the Triazine compound A was analyzed by using liquid chromatography-tandem mass spectrometry (LC-MS/MS). […]

The target of data set [5] is T1, human CYP11B2 (Homo sapiens, UniProt P19099).
T1 construct: expressed in transfected cells; the mitochondrial fraction was used
T1 sequence (P19099 25-503): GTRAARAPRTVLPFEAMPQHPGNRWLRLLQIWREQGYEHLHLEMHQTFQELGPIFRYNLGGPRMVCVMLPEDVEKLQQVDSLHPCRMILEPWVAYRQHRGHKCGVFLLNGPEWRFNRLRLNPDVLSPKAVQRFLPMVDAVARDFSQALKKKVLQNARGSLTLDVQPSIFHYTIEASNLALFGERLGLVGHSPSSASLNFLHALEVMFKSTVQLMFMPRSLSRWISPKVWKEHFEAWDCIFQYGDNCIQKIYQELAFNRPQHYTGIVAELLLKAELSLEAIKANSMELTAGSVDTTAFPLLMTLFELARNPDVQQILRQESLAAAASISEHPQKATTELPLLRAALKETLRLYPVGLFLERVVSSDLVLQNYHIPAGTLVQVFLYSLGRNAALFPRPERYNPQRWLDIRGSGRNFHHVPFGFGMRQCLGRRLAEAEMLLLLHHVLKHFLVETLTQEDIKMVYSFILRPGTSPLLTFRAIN
Nature of the data set: Aldosterone synthase (CYP11B2) inhibitory activity measurement. The note with it: mitochondrial fraction of V79 cells expressing human CYP11B2; deoxycorticosterone substrate; HTRF; read-out: IC50 (aldosterone production inhibition). Type of data set: biochemical. The procedure: The pcDNA3.1-human CYP11B2 plasmid was transfected into a Chinese hamster lung fibroblast V79 cell line to produce a cell line stably expressing a human CYP11B2 gene.
The cells were cultured and grown in the Dulbecco's modified Eagle's/Ham's medium supplemented with 10% fetal bovine serum and 1% G418 disulfate solution under the environment of 37° C., 95% air, and 5% CO2, and the grown cells were harvested.
Then, the cells were fractionated to obtain mitochondria by reference to a method described in Chabre et al. JCE & M 85 (11) 4060-68, 2000. In particular, the cells suspended in a 5 mmol/L Tris-HCl buffer (pH 7.4) containing 250 mmol/L sucrose were homogenized in a Teflon (registered trademark) Potter Elvehjem homogenizer, and then the suspension was centrifuged (800×g, 15 min). […]
The mitochondrial fraction diluted with a buffer containing 10 mmol/L KH2PO4, 10 mmol/L Tris, 20 mmol/L KCl, 25 mmol/L sucrose, 5 mmol/L MgCl2, and 0.05% bovine serum albumin was dispensed to a 96 well plate. […] The amount of the produced aldosterone in the incubated solution was determined by using HTRF (Homogeneous Time Resolved Fluorescence) method.
IC50 (nmol/L) was calculated by analyzing the aldosterone production inhibition rate (%) of each concentration of the Triazine compound A of the present invention by non-linear regression to a logistic curve.
Background: In TR-FRET formats the signal depends on donor and acceptor labels being close together.

[6] abbreviates: Omeprazole, reduced gastric acid secretion.
[7] abbreviates: Pentagastrin, increased gastric acid secretion.

Consider `Br.CC(=O)N[C@H]1CC[C@H](NC(=O)CN2CCN(c3nncc(-c4ccc(C)cc4)n3)CC2)CC1` [Hydrobromide Form A crystal, 3-[4-[[trans-4-(acetamino)cyclohexyl]carbamoylmethyl]piperazin-1-yl]-5-(p-tolyl)-1,2,4-triazine hydrobromide], for which, in data set [1], the “Thermal stability TG: weight change” value is 0.9%. For the same compound, the “Thermal stability TG: weight change” value in data set [1] (Table 10) amounted to 0.98. Moreover, the “Thermal stability, conclusion in words” value in data set [1] (did not show a significant weight change (Succinate Form A: at 25 to 148° C., melting point)) was “excellent thermal stability”. Besides, the “Hygroscopicity or Deliquescency Weight change at 90% RH” value in data set [2] (Table 5, 25° C., relative to weight at 0% RH) was found to be 1.0%. Besides, in data set [2] (Table 10, *1 with hydration stage), the “Hygroscopicity or Deliquescency Weight change at 90% RH” value was determined as 1.0% ^. Further, in data set [2] (from Table 5), the “Hygroscopicity or deliquescency, conclusion in words” value was “excellent in the reduced hygroscopicity or deliquescency”. The “Chemical stability, conclusion in words” value in data set [3] is “excellent chemical stability”. For the same compound, the “Change of plasma concentration with the gastric acid conditions” value in data set [4] (oral 10 mg free form equivalent, pentagastrin vs omeprazole) is listed as “not changed”. Further, in data set [4] (setting [6]), the Cmax turned out to be 256 ng/mL, the AUC(0-inf) turned out to be 2030 ng·h/mL, the AUC(0-t) was found to be 1990 ng·h/mL and the Tmax is 1.83 h. The half-life in data set [4] (setting [6]) was 4.3 h. Also, in data set [4] (setting [7]), the maximum concentration (Cmax) amounted to 263 ng/mL, the AUC(0-inf) was determined as 2020 ng·h/mL, the AUC(0-t) came to 1990 ng·h/mL and the Tmax worked out at 1.67 h. In data set [4] (setting [7]), this compound showed a half-life of 4.24 h.
As for `CC(=O)N[C@H]1CC[C@H](NC(=O)CN2CCN(c3nncc(-c4ccc(C)cc4)n3)CC2)CC1` [Triazine compound A, 3-[4-[[trans-4-(acetamino)cyclohexyl]carbamoylmethyl]piperazin-1-yl]-5-(p-tolyl)-1,2,4-triazine], in data set [4] (oral 10 mg), the “Reduction of AUC under reduced gastric acid conditions as compared to increased gastric acid secretion conditions” value is listed as “about 50%” and the “Reduction of Cmax under reduced gastric acid conditions as compared to increased gastric acid secretion conditions” value is “about 50%”. Also, in data set [4] (setting [6]), the highest concentration (Cmax) turned out to be 102 ng/mL, the total exposure AUC(0-inf) came to 1000 ng·h/mL, the exposure AUC(0-t) was determined as 943 ng·h/mL and the Tmax is 3.33 h. Besides, in data set [4] (setting [6]), the half-life was 5.6 h. Besides, in data set [4] (setting [7]), the Cmax turned out to be 222 ng/mL, the area under the curve AUC(0-inf) was found to be 1910 ng·h/mL, the exposure AUC(0-t) amounted to 1690 ng·h/mL and the Tmax is 1.42 h. Moreover, in data set [4] (setting [7]), the half-life is 4.26 h. Besides, the IC50 in data set [5] was found to be 9 nM.
